Measured values as given in paper PMC7645381, “Development and application of a high-throughput screening assay for identification of small molecule inhibitors of the P. falciparum reticulocyte binding-like homologue 5 protein” (International Journal for Parasitology: Drugs and Drug …, 2020).
pIC50: −log10 of the molar value. Structures can show the parent of a compound that is named as a salt.

Experiments:
Assay in all cases: biochemical
[1] = target: T1, P. falciparum Rh5 (Rh5 – basigin interaction) (Plasmodium falciparum, UniProt Q8IFM5); format: binding; conditions: for Rh5 inhibitory activity in the AlphaScreen assay: highest concentration tested 50 μM
[2] = target: T1, P. falciparum Rh5 (Rh5 – basigin interaction); parameters: AlphaScreen of Rh5 - His-tagged basigin interaction with anti-Rh5 mAb beads; inhibition of luminescence signal; conditions: primary pilot screen, single point; for % Inhibition Pilot: 20 µM, inhibitor
Experimental: Using the Combi-multidrop, 5 μL of Rh5 stock solution (200 nM prepared in assay buffer) was added to columns 1–24 of the 384-well assay plate (Greiner 384-well white, low binding plate, #784904, Bioone). The PerkinElmer Janus automated dispensing system was then employed to transfer, via the pin-tool, 2 × 100 nL of the compound stock DMSO solution from the compound master plate to the assay plate. The plate was sealed and incubated for 30 min at room temperature. Using a Combi-multidrop, 5 μL of hexa-histidine tagged basigin stock solution (80 nM prepared in assay buffer) was then added to columns 1–23 and 5 μL assay buffer to column 24 of the 384-well assay plate. The plate was sealed again and incubated for 30 min at room temperature. A solution of AlphaScreen donor and acceptor beads (20 μg/mL prepared in assay buffer) plus anti-Rh5 mAb solution (2 μg/mL prepared in assay buffer) was prepared in assay buffer under subdued lighting. Using the Combi-multidrop, 10 μL of this solution was added to every well of the assay plate under subdued lighting. The plate was sealed with foil (plate max) and incubated at room temperature for 1 h. The assay plate was then analysed on the PerkinElmer Envision 2103 Multilabel Plate Reader (Ex 680, Em 520–620 nm). The optimised Rh5 AlphaScreen assay was then validated for HT screening purposes by conducting a pilot screen using known drug library (from Prestwick, Tocris and LOPAC) and the MMV Malaria Box, comprising 3708 and 400 compounds (Fig. 1), respectively. Historically, PPIs are notoriously difficult to target with small molecules. To enhance the likelihood of identifying an inhibitor of the Rh5 - basigin interaction the primary screen was conducted at a compound concentration of 20 μM. A 20 μM screening concentration is considered high, when compared to the commonly used primary screen concentrations of approximately 1–10 μM. To follow-up on hit compounds from the pilot validation screen, we next wanted to confirm the activity of the primary hits. To do this, a two-phase hit confirmation and counterscreen process was undertaken (Fig. 1). In the first phase, the 231 primary hits from both libraries were evaluated in the Rh5 AlphaScreen assay and counterscreen assay. Both assays were undertaken at 10 μM in duplicate. The counterscreen assay was conducted using AlphaScreen TruHits. […] The 45 secondary hits can be viewed in the top left quadrant of Fig. S8. Of the 45 hits, 13 compounds originated from the Malaria Box and 32 compounds from the known drug library.

[3] = target: T1, P. falciparum Rh5 (Rh5 – basigin interaction); parameters: AlphaScreen of Rh5 - His-tagged basigin interaction with anti-Rh5 mAb beads; inhibition of luminescence signal; conditions: confirmation screen, duplicate; for % Inhibition Confirmation: 10 µM, inhibitor
Experimental: Using the Combi-multidrop, 5 μL of Rh5 stock solution (200 nM prepared in assay buffer) was added to columns 1–24 of the 384-well assay plate (Greiner 384-well white, low binding plate, #784904, Bioone). The PerkinElmer Janus automated dispensing system was then employed to transfer, via the pin-tool, 2 × 100 nL of the compound stock DMSO solution from the compound master plate to the assay plate. The plate was sealed and incubated for 30 min at room temperature. Using a Combi-multidrop, 5 μL of hexa-histidine tagged basigin stock solution (80 nM prepared in assay buffer) was then added to columns 1–23 and 5 μL assay buffer to column 24 of the 384-well assay plate. The plate was sealed again and incubated for 30 min at room temperature. A solution of AlphaScreen donor and acceptor beads (20 μg/mL prepared in assay buffer) plus anti-Rh5 mAb solution (2 μg/mL prepared in assay buffer) was prepared in assay buffer under subdued lighting. Using the Combi-multidrop, 10 μL of this solution was added to every well of the assay plate under subdued lighting. The plate was sealed with foil (plate max) and incubated at room temperature for 1 h. The assay plate was then analysed on the PerkinElmer Envision 2103 Multilabel Plate Reader (Ex 680, Em 520–620 nm). […] Historically, PPIs are notoriously difficult to target with small molecules. To enhance the likelihood of identifying an inhibitor of the Rh5 - basigin interaction the primary screen was conducted at a compound concentration of 20 μM. A 20 μM screening concentration is considered high, when compared to the commonly used primary screen concentrations of approximately 1–10 μM. […] To do this, a two-phase hit confirmation and counterscreen process was undertaken (Fig. 1). […] Both assays were undertaken at 10 μM in duplicate. The counterscreen assay was conducted using AlphaScreen TruHits.

T1 sequence (Q8IFM5 24-526): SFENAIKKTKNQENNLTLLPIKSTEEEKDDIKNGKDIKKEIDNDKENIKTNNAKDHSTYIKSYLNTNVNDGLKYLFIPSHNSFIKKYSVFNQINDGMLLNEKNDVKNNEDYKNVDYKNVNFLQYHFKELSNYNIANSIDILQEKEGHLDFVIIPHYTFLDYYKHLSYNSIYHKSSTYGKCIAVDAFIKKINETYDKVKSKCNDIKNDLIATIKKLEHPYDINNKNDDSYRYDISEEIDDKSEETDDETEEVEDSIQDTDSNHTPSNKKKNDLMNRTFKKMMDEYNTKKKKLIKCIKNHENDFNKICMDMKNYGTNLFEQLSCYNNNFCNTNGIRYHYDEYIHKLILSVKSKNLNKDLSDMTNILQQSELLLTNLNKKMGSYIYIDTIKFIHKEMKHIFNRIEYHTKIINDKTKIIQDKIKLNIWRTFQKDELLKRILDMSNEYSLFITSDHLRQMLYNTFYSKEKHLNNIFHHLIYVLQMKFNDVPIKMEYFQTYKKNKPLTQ

Compound	inhibition at 20 µM ([2]; Batch Reference=01) [%]	inhibition at 10 µM ([3]; Batch Reference=01) [%]	further results
CCOC(=O)c1cc(=O)c2cccc(NC(=O)c3ccc(OC)cc3)c2o1 [Compound 20, Ethyl 8-(4-methoxybenzamido)-4-oxo-4H-chromene-2-carboxylate]			pIC50 [1]: < 4.30
C[n+]1cc2c3c(ccc2c2ccc4cc5c(cc4c21)OCO5)OCO3 [WEHI-1215580, Sanguinarine chloride]	70.3	99	
O=C(O)Cc1cccc(OCCCN(Cc2cccc(C(F)(F)F)c2Cl)CC(c2ccccc2)c2ccccc2)c1 [WEHI-1216231, GW 3965 hydrochloride]	57.8	51.1	
CCOC(=O)c1cc(=O)c2cccc(NC(=O)c3ccc(OCCc4ccccc4)cc3)c2o1 [Compound 12, Ethyl 4-oxo-8-(4-phenethoxybenzamido)-4H-chromene-2-carboxylate]			pIC50 [1]: < 4.30
COCCCOc1ccnc(C[S+]([O-])c2nc3ccccc3[nH]2)c1C (stereo not shown) [rabeprazole]	59.6	68	
COC(=O)C1=C(C)NC(C)=C(C(=O)OC)C1c1ccccc1[N+](=O)[O-] [WEHI-0104145, Nifedipine]			inhibition at 20 µM ([2]; Batch Reference=02): 55.3%; inhibition at 20 µM ([2]; Batch Reference=03): 57.3%; inhibition at 10 µM ([3]; Batch Reference=02): 81.1%; inhibition at 10 µM ([3]; Batch Reference=03): 75.7%
CN1CCc2cccc3c2[C@H]1Cc1ccc(O)c(O)c1-3 [R(-)-apomorphine, reference compound]			Rh5 inhibitory activity in the AlphaScreen assay [1]: not active
NC(Cc1cc(O)c(O)cc1O)C(=O)O (racemic) [WEHI-1215200, 6-Hydroxy-DL-DOPA]	69.7	80.7	
NCCNCCNCCNCCN [WEHI-1217021, Tetraethylenepentamine pentahydrochloride]	96.2	96.9	
CN1CCc2cccc3c2[C@H]1Cc1ccc(O)c(O)c1-3 [WEHI-1216442, (R)-(-)-Apomorphine hydrochloride]	70.8	76.5	
CN(C)C(=O)CCSC(SCCC(=O)O)c1cccc(/C=C/c2ccc3ccc(Cl)cc3n2)c1 (stereo not shown) [MK 571, reference compound]			Rh5 inhibitory activity in the AlphaScreen assay [1]: did not show Rh5 inhibitory activity
CCCN1CCc2cccc3c2[C@H]1Cc1ccc(O)c(O)c1-3 [R(-)-propylnorapomorphine, reference compound]			Rh5 inhibitory activity in the AlphaScreen assay [1]: not active
CC#C[C@]1(O)CC[C@H]2[C@@H]3CCC4=CC(=O)CCC4=C3[C@@H](c3ccc(N(C)C)cc3)C[C@@]21C [WEHI-1215337, Mifepristone]	75.3	91.7	inhibition at 20 µM ([2]; Batch Reference=03): 76.6%; inhibition at 10 µM ([3]; Batch Reference=03): 96.5%
CCOC(=O)c1cc(=O)c2cccc(NC(=O)c3ccc(OCCCCc4ccccc4)cc3)c2o1 [Compound 14, Ethyl 4-oxo-8-(4-(4-phenylbutoxy)benzamido)-4H-chromene-2-carboxylate]			pIC50 [1]: < 4.30
CN1CCc2cccc3c2[C@H]1Cc1ccc(O)c(O)c1-3 [WEHI-1217165, R(-) Apomorphine hydrochloride hemihydrate]			% Inhibition Pilot ([2]; Batch Reference=01): 61.89%; % Inhibition Confirmation ([3]; Batch Reference=01): 62.575%
O=C1C=CC(=O)c2c1ccc1c2ccc2ccccc21 [WEHI-1216729, Chrysene-1,4-quinone]	56.6	71	
CC(=O)N1CCN(c2ccc(OC[C@@H]3CO[C@@](Cn4ccnc4)(c4ccc(Cl)cc4Cl)O3)cc2)CC1 (racemic) [WEHI-1215227, Ketoconazole]			inhibition at 20 µM ([2]; Batch Reference=02): 58.3%
CCCN1CCc2cc(O)cc3c2[C@H]1Cc1ccc(O)c(O)c1-3 [WEHI-1215052, R(-)-2,10,11-Trihydroxy-N-propylnoraporphine hydrobromide]	69.8	87.2	
CCCN1CCc2cccc3c2[C@H]1Cc1ccc(O)c(O)c1-3 [WEHI-1215034, R(-)-Propylnorapomorphine hydrochloride]	83	84.9	
CN1CCc2cc(O)cc3c2[C@H]1Cc1ccc(O)c(O)c1-3 [WEHI-1215043, R(-)-2,10,11-Trihydroxyaporphine hybrobromide]	62.6	84.7	
CN1CCc2cccc3c2[C@H]1Cc1ccc(O)c(O)c1-3 [WEHI-1214737, Apomorphine hydrochloride hemihydrate]			% Inhibition Pilot ([2]; Batch Reference=01): 62.755%; % Inhibition Confirmation ([3]; Batch Reference=01): 72.2885%
CC[N+](C)(CC)CCC[n+]1c(-c2ccccc2)c2cc(N)ccc2c2ccc(N)cc21 [WEHI-1216760, Propidium iodide]	55.7	77	
CCOC(=O)c1cc(=O)c2cccc(NC(=O)c3ccc(OCc4ccccc4)cc3)c2o1 [Compound 11, Ethyl 8-(4-(benzyloxy)benzamido)-4-oxo-4H-chromene-2-carboxylate]			pIC50 [1]: < 4.30
COCCCOc1ccnc(C[S+]([O-])c2nc3ccccc3[nH]2)c1C (stereo not shown) [rabeprazole, reference compound]			Rh5 inhibitory activity in the AlphaScreen assay [1]: not active
Br.CN1CCc2cc(O)cc3c2[C@H]1Cc1ccc(O)c(O)c1-3 [R(-)-2,10,11-trihydroxyaporphine, reference compound]			Rh5 inhibitory activity in the AlphaScreen assay [1]: not active
O=C(Nc1cccc2c(=O)cc(C(=O)O)oc12)c1ccc(OCc2ccccc2)cc1 [Compound 15, 8-(4-(Benzyloxy)benzamido)-4-oxo-4H-chromene-2-carboxylic acid]			pIC50 [1]: < 4.30; Rh5 inhibitory activity in the AlphaScreen assay [1]: No activity
